Patent US20220304945A1, “METHODS OF TREATING METABOLIC SYNDROME RELATED CONDITIONS USING RETINOIC ACID RECEPTOR AGONISTS” (Cornell University, priority 2014, published 2022)

Experiments:
RARβ2 = target: T1, RARβ2 (Homo sapiens, UniProt P10826); settings: as described in Lund et al. 2005; cited from earlier work
T1 sequence (P10826 1-448 isoform P10826-2): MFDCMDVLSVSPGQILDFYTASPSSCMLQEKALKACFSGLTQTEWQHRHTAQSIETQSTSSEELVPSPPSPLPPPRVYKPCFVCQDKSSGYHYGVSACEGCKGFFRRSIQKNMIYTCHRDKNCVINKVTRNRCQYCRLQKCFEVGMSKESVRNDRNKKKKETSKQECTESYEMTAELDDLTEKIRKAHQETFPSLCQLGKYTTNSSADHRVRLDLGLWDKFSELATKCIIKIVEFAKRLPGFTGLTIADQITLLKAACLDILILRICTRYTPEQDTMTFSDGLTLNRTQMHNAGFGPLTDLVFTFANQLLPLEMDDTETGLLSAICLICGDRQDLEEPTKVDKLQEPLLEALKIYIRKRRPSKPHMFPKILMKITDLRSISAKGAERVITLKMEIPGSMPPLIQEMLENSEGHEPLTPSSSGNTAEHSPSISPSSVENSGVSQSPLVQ

HF-fed C57/BL6 mice [1] = assay: HF-fed mice treated 3 months: body weight, GTT, fasting glucose (Example 22); assay type: in vivo, mouse
Description: METHODS. Preparation of RARβ agonists solution. AC261066 and AC55649 were dissolved in dimethyl sulfoxide (DMSO) at the concentration of 3.0 mg/ml and diluted in the drinking water for mice to the final concentration of 3.0-mg/100 ml. Mice, diet, and drug treatments. Wt male C57/BL6 male mice were maintained on either a standard laboratory chow-fed diet (Con) with 13% kcal fat, (diet #5053, Lab Diet, Inc, St. Louis, Mo., [n=4]) or a high fat, western style diet (HFD) with 45% kcals from fat, (diet #58126, Lab Diet, Inc., St. Louis, Mo.) for 3 months. Two weeks after the start of the HFD treatment, the HFD group was further split into 3 groups for 3 months: i) HFD and drinking water containing 1% DMSO (n=5); ii) high fat diet (HFD) and drinking water containing 3.0 mg/100 ml AC261066, a specific RARβ agonist (n=5) or iii) HFD and drinking water containing 3.0 mg/100 ml AC55649, a specific RARβ agonist (n=4). After 3 months the mice were tested for glucose intolerance with an intra-peritoneal glucose tolerance test (GTT). Mice were then sacrificed by cervical dislocation. Blood and various tissue samples were harvested.
Glucose Tolerance Test (GTT). Glucose tolerance was performed using an intraperitoneal glucose tolerance test (GTT). Mice were fasted overnight (˜16 hrs) followed by intra-peritoneal injections (n=3-5 per group) of 50% glucose in PBS at 2.0 g of glucose/kg of body weight. Tail vein blood was collected at 15, 30, 45, 60, and 120 minutes post-injection for glucose measurements using a FreeStyle Lite Blood Glucose Monitoring System (Abbott Diabetes Care, Inc. Alameda, Calif.). Random and fasting blood glucose measurements were taken from tail veins of 4 mice per group at 2-3 random time points daily or just prior to GTT. Means are expressed as ±standard error of the mean (S.E.M) and P-values were calculated using one-way analysis of variance followed by Bonferroni post-hoc analysis. Grubbs' maximum normal residual test was used for detection of one or more outliers.

Ob/Ob and Db/Db mice = assay: Metabolic studies (body weight, GTT, insulin secretion, ITT) in Ob/Ob and Db/Db mice, 8 weeks; assay type: in vivo, mouse; settings: genetically obese and diabetic Ob/Ob and Db/Db mice
HF-fed C57/BL6 mice [2] = assay: Metabolic studies (body weight, GTT) in HF-fed wild type mice, 4 months; assay type: in vivo, mouse; settings: obese HF-fed mice, 3.0 mg/100 ml drinking water
Description: Mice, diet, and drug treatment. Dietary Obesity Studies: Wild type (wt) male C57/BL6 male mice were maintained on either a standard laboratory chow-fed diet (Con) with 13% kcal fat, (diet #5053, Lab Diet, Inc, St. Louis, Mo.) or a high fat, western style diet (HFD) with 45% kcals from fat, (diet #58126, Lab Diet, Inc., St. Louis, Mo.) for 4 months. […]
Metabolic Measurements-Glucose tolerance was performed using an intraperitoneal glucose tolerance test (GTT) as previously described (Trasino et al., Vitamin A Deficiency Causes Hyperglycemia and Loss of Pancreatic β-Cell Mass, J Biol Chem. 2014 Dec. 1. pii: jbc.M114.616763). […] Tail vein blood glucose was measured at 20, 40, 60 and 120 minutes after injection using a FreeStyle Lite Blood Glucose Monitoring System (Abbott Diabetes Care, Inc. Alameda, Calif.). To determine insulin secretion responses to glucose, serum fractions were isolated between 0-60 minutes post glucose injections and insulin concentrations were measured using an Ultrasensitive Insulin ELISA Kit (Alpco, Inc. Salem, N.H.). Random blood glucose measurements were taken from tail veins of 4 mice per group at 2-3 random time points daily Means are expressed as±standard error of the mean (S.E.M) and P-values were calculated using one-way analysis of variance followed by Bonferroni post-hoc analysis.

CCCCCCCCc1ccc(-c2ccc(C(=O)O)cc2)cc1 [AC55649, 4′-Octyl-[1,1′-biphenyl]-4-carboxylic acid]
isoform selectivity for the human RARβ2 receptors (RARβ2): highly isoform-selective agonists | glucose tolerance and area under the curve glucose (HF-fed C57/BL6 mice [1]): improved | overnight fasting glucose levels (HF-fed C57/BL6 mice [1]): significant reductions | decrease in body weights compared to HF-fed mice (HF-fed C57/BL6 mice [1]; 3.0 mg/100 ml drinking water): ~10% | body weights (Ob/Ob and Db/Db mice): significant reductions | body weights (HF-fed C57/BL6 mice [2]): significant reductions
